This is an account of results in US20260284028A1, “FUSED BICYCLIC HETEROCYCLYL COMPOUNDS AS CCR4 MODULATORS” (AURIGENE ONCOLOGY LIMITED, priority 2023, published 2026).

SMILES strings stand for the structures. Read-outs that look alike come from different tables or passages of the source. Bounds are passed on as bounds.

A word on the IC50: it is the point on the concentration scale where inhibition reaches its midpoint.

The target in the experiment is T1, CCR4 (Homo sapiens, UniProt P51679).
T1 construct: expressed in transfected cells; host or cells: CHO-K1
T1 sequence (P51679 1-360): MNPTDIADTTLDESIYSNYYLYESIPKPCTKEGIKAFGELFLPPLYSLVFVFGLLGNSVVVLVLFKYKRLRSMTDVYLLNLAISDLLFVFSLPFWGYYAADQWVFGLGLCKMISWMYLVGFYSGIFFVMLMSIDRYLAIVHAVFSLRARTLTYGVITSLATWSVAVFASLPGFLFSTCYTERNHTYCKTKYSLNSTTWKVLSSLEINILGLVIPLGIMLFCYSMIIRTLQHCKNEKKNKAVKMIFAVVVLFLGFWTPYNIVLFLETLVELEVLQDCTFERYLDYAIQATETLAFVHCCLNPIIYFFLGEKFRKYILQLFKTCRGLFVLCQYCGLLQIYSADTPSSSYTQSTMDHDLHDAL
The experiment can be described thus: β-Arrestin recruitment assay (CHO-K1 CCR4 β-Arrestin cells stimulated with recombinant human CCL22). The class given is cell-based. To be noted: CCL22 10 nM stimulation; for IC50: read-out: CCR4 antagonistic activity IC50 (μM) in range; for inhibition: read-out: % inhibition at 5 μM/30 μM (% E-Max). How it is done:
CHO-K1 CCR4 β-Arrestin cells were seeded and incubated overnight at 37° C. in a CO2 incubator for adherence. Next day, cells were pretreated with various concentrations of CCR4 modulators for 30 mins at 37° C. The cells were stimulated with recombinant human CCL22 (10 nM) and further incubated for 90 mins. Working detection solution was added and incubated at room temperature for 1 hour after which the chemiluminescent signal was read using a luminometer.
Exemplary compounds of the present application were screened by the above-mentioned assay and the results were tabulated.

[1] abbreviates: CHO-K1, read-out: % inhibition 30 μM (% E-Max).

In the case of `C[C@@H](Nc1c(F)ncc2nc(N3CC([C@H]4CCCN([C@H]5C[C@](C)(C(=O)O)C5)C4)C3)sc12)c1ccc(Cl)cc1Cl` [Compound 30], the concentration for half-maximal inhibition (IC50) is < 0.25 µM. The inhibition under setting [1] was found to be 103%.
For `C[C@@H](Nc1ncnc2nc(N3CC([C@H]4CCCN([C@H]5C[C@](C)(C(=O)O)C5)C4)C3)sc12)c1ccc(Cl)cc1Cl` [Compound 32, (1R,3r)-3-((R)-3-(1-(7-(((R)-1-(2,4-Dichlorophenyl)ethyl)amino)thiazolo[4,5-d]pyrimidin-2-yl)azetidin-3-yl)piperidin-1-yl)-1-methylcyclobutane-1-carboxylic acid], in that order: < 0.25 µM and 104%.
In the same order, the values of `Cc1nc(N[C@H](C)c2ccc(Cl)cc2Cl)c2sc(N3CC([C@H]4CCCN([C@H]5C[C@](C)(C(=O)O)C5)C4)C3)nc2n1` [Compound 33] are < 0.25 µM and 103%.
For `C[C@@H](Nc1nc(C(F)(F)F)nc2nc(N3CC([C@H]4CCCN([C@H]5C[C@](C)(C(=O)O)C5)C4)C3)sc12)c1ccc(Cl)cc1Cl` [Compound 34], in that order: 0.25 to 0.5 µM and 102%.
For `C[C@@H](Nc1c(F)ccc2nc(N3CC([C@H]4CCCN([C@H]5C[C@](C)(C(=O)O)C5)C4)C3)sc12)c1ncc(Cl)cc1Cl` [Compound 36, (1R,3r)-3-((R)-3-(1-(7-(((R)-1-(3,5-dichloropyridin-2-yl)ethyl)amino)-6-fluorobenzo[d]thiazol-2-yl)azetidin-3-yl)piperidin-1-yl)-1-methylcyclobutane-1-carboxylic acid], the IC50 is < 0.25 µM and the “% inhibition at 5 μM/30 μM (% E-Max)” value came out at 103% at 5 μM.
In the same order, the values of `C[C@@H](Nc1c(F)ccc2nc(N3CC([C@H]4CCCN([C@H]5C[C@](C)(C(=O)O)C5)C4)C3)sc12)c1ncc(Cl)cc1Cl` [Compound 37, (1R,3r)-3-((R)-3-(1-(7-(((S)-1-(3,5-dichloropyridin-2-yl)ethyl)amino)-6-fluorobenzo[d]thiazol-2-yl)azetidin-3-yl)piperidin-1-yl)-1-methylcyclobutane-1-carboxylic acid] are > 0.5 µM and 78% at 5 μM.
With `CC(Nc1c(F)ccc2nc(N3CC([C@H]4CCCN([C@H]5C[C@](C)(C(=O)O)C5)C4)C3)sc12)c1ncc(F)cc1F` (stereo partly shown) [Compound 38], the half-maximal inhibitory concentration (IC50) was in the range of 0.25 to 0.5 µM. Further, the inhibition under setting [1] came out at 81%.
For the compound `C[C@@H](Nc1c(F)ccc2nc(N3CC([C@H]4CCCN([C@H]5C[C@](C)(C(=O)O)C5)C4)C3)sc12)c1ncc(F)cc1F` [Compound 39], the inhibition under setting [1] stood at 39%.
Consider `C[C@H](Nc1c(F)ccc2nc(N3CC([C@H]4CCCN([C@H]5C[C@](C)(C(=O)O)C5)C4)C3)sc12)c1ncc(F)cc1F` [Compound 40], for which the IC50 is 0.25 to 0.5 µM. Besides, under setting [1], the inhibition is 84%.
In the same order, the values of `CC(Nc1c(F)cnc2nc(N3CC([C@H]4CCCN([C@H]5C[C@](C)(C(=O)O)C5)C4)C3)sc12)c1ncc(Cl)cc1Cl` (stereo partly shown) [Compound 41] are 0.25 to 0.5 µM and 101%.
With `CC(Nc1c(F)cnc2nc(N3CC([C@H]4CCCN([C@H]5C[C@](C)(C(=O)O)C5)C4)C3)sc12)c1ncc(F)cc1F` (stereo partly shown) [Compound 44], the IC50 was in the range of 0.25 to 0.5 µM. Moreover, the inhibition under setting [1] is 99%.
In the same order, the values of `CC(Nc1c(OC(F)F)ccc2nc(N3CC([C@H]4CCCN([C@H]5C[C@](C)(C(=O)O)C5)C4)C3)sc12)c1ncc(Cl)cc1Cl` (stereo partly shown) [Compound 47] are > 0.5 µM and 93%.
On to `C[C@@H](Nc1c(OC(F)F)ccc2nc(N3CC([C@H]4CCCN([C@H]5C[C@](C)(C(=O)O)C5)C4)C3)sc12)c1ncc(Cl)cc1Cl` [Compound 48], for which the inhibition under setting [1] stood at 52%.
`C[C@H](Nc1c(OC(F)F)ccc2nc(N3CC([C@H]4CCCN([C@H]5C[C@](C)(C(=O)O)C5)C4)C3)sc12)c1ncc(F)cc1F` [Compound 52]: the IC50 was > 0.5 µM. Besides, the inhibition (CHO-K1, at 30 μM) amounted to 99%.
In the case of `C[C@@H](Nc1ncnc2nc(N3CC([C@H]4CCCN([C@H]5C[C@](C)(C(=O)O)C5)C4)C3)sc12)c1ncc(Cl)cc1Cl` [Compound 53], the IC50 is 0.25 to 0.5 µM. Further, the inhibition under setting [1] stood at 94%.
